Test results reported in patent publication US20250230138A1, “COMPOUNDS HAVING A T-STRUCTURE FORMED BY AT LEAST FOUR CYCLES FOR USE IN THE TREATMENT OF CANCER AND OTHER INDICATIONS” (TheRas, Inc., priority 2022, published 2025).
Where two headings read alike, the source gives them in different places.

Legend:
[1] = biological target: KRAS-PI3Kα interaction (KRAS-Q25A binding to avi-tagged full length PI3Kα) (Homo sapiens (Human), UniProt P42336); experiment: Disrupting KRAS-PI3Kα interaction by SPR inhibition assay; details: KRAS-Q25A at 20 μM, 25° C.
Description: SPR binding experiments were collected on a Biacore 8K Instrument (Cytiva). Neutravidin (Pierce) was amine coupled to the carboxymethylated dextran surface of a CM5 sensor chip (Cytiva) using standard amine coupling chemistry. The CM5 chip surface was first activated with 0.1 M N-hydroxy succinimide and 0.4 M N-ethyl-N′-(3-dimethyl aminopropyl) carbodiimide at a flow rate of 20 μL/min using 20 mM HEPES pH 7.4, 150 mM NaCl as the running buffer. Next, neutravidin was diluted to 20 μg/mL in 10 mM sodium acetate (pH 4.5) and injected on all flow cells until a density of approximately 10,000 response units (RU) was immobilized. Activated amine groups were quenched with an injection of 1 M ethanolamine (pH 8.0). 300-500 RU of avi-tagged full length PI3Kα was captured on all flow cells in 20 mM HEPES pH 7.4, 150 mM NaCl, 5 mM MgCl2, 1 mM TCEP, 0.05% tween 20, 5% DMSO buffer. KRAS-Q25A at 20 μM was mixed with 8 concentrations of compound (50 nM-100 μM) and injected over the full-length PI3Kα at 30 μL/min and 25° C. Steady-state levels of KRAS binding were recorded and fit with a 4-parameter inhibition model to determine the IC50 values.

[2] = biological target: Cys242 in human PIK3CA (157-299) (Homo sapiens (Human), UniProt P42336); experiment: Covalent modification assay using MALDI-TOF MS; format: biochemical; details: 4 h reaction time point; 3.33 μM protein target, 1:7.5 protein to compound ratio (compounds 1-852)
Summary of the method: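 PIK3CA (157-299), 3.33 or 1 μM in 20 mM HEPES, 150 mM NaCl, 2 mM MgCl2, pH 7.3, was incubated with compound at room temperature in the dark for 15 min, 30 min, 2 h or 4 h. Linear MALDI-TOF read-out; % modification = adduct peak height over summed heights of all protein species.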

[3] = test system: pAKT in Tet-on KRAS G12D HeLa cells; experiment: Cell-based pAKT HTRF assay in Tet-on KRAS G12D HeLa cells; details: read-out: pAKT inhibition IC50 in Tet-on KRAS G12D HeLa cells
Description: To determine the effectiveness of compounds in disrupting PIK3CA/KRAS signaling in cells, we implemented pAKT HTRF assay (Perkin-Elmer) in Tet-on KRAS G12D HeLa cells.
On Day 1, cells were seeded into 96-well plates at 2×10^4 cells/well in complete growth media (DMEM, 10% Tet-Screened FBS) supplemented with 200 ng/mL doxycycline.
On Day 2, cells were treated with compounds at 0.25% DMSO. The source plate was created with compounds diluted in media at 5-fold the final assay concentration. The compounds are run in a 9-point concentration curve starting at 75 μM, with a 3-fold dilution between concentrations. […] 20 μL was transferred onto the cell plates (final volume in wells was 100 μL). Plates were harvested after 30 min and 4 hr incubation by aspirating media and adding kit-supplied 1× supplemented lysis buffer to all wells (50 μL per well). This then changed to 4 hr only when compounds became covalent. Plates were then placed on a plate shaker and incubated at 850 rpm for an additional 30 min. The antibody mixture solution was prepared by diluting aliquoted d2 and Eu Cryptate antibodies 1:20 in kit supplied detection buffer, then mixed the diluted antibodies solutions (1:1 v:v). 4 μL of this solution was then added to a 384-well detection plate (Perkin Elmer; 6008230). Samples were homogenized by pipetting up and down and then transferred (16 μL of cell lysates) from the 96-well cell culture plate to two wells of the HTRF 384-well detection plate containing the antibody solution. Plates were centrifuged (524 g for 1 min) and allowed to incubate between 4 and 24 h at room temperature. The maximum signal is reached after 4 h incubation time and remains stable over a period of 24 hours. Therefore, readings can be made between 4 and 24 h of incubation. Plates were centrifuged again (524 g for 1 min), and analyzed on the EnVision plate reader using the following settings: Excitation 320 nm, Bandwidth […]; Emission 615 nm, Bandwidth […], Gain 100%, Flashes 100, Lag 60 μs.

[4] = Blood glucose after an oral glucose tolerance test in fasted male mice (FIG. 3C); format: in vivo; details: single dose
Description: (§1) (One-way ANOVA with Dunnett's test vs. vehicle; *=p<0.01; **=p<0.0001). From left to right along x-axis in FIG. 3B: vehicle, 30 mg/kg BBO, 100 mg/kg BBO, 300 mg/kg BBO, 50 mg/kg alpelisib. […] (One-way ANOVA with Tukey's multiple comparisons test vs all other groups: *p<0.0001) (IV=intravenous administration; PO=per os or oral administration; ng/mL=nanograms per milliliters; mg/kg=milligrams per kilogram; mg/dL=milligrams per deciliter; min=minutes; CDX=cell line derived xenograft; QD=quaque die or once daily, PK=pharmacokinetics)

[5] = Insulin levels in fed male mice (FIG. 3D); format: in vivo; details: single oral dose 50 mg/kg, 240 minutes after administration
Description: as §1

[6] = test system: pAKT in BT474 cells; experiment: Cell-based pAKT HTRF assay in BT474 cells
Summary of the method: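 pAKT was measured by HTRF after a 4 hr compound exposure in BT474 cells (DMEM, 10% FBS, 0.25% DMSO), using 9 concentrations from 3 μM in 3-fold steps. Cell lysates were incubated with the Eu cryptate/d2 antibody pair at room temperature for 4 to 24 h. The plate was then read at 320 nm excitation and 615 nm emission.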

[7] = test system: BT474 cell line; experiment: Cell viability in BT474 cell line; format: cell-based; details: Homo sapiens, BT-474
Text: Table 8 compares the pAKT IC50 and cell viability for Compound 58, a PI3Kα breaker, and the PI3Kα inhibitor alpelisib in the breast cancer estrogen receptor positive (ER+) BT474 cell line, which harbors a HER2 amplification and PIK3CA linker domain K111N mutation. […] Importantly, the potency on pAKT translates well into a loss in cellular viability.

[8] = test system: pAKT (Ser473) in BT474 CDX tumors; experiment: Pharmacodynamic activity (tumor pAKT) in BT474 cell line-derived xenograft model; format: in vivo, mice; details: NOD/SCID mice, 4 hours after one oral dose of 50 mg/kg
Description: An in vivo study was conducted to evaluate the pharmacodynamic activity of Compound 58 in the breast cancer estrogen receptor positive (ER+) BT474 cell line-derived xenograft (CDX) model, which harbors a HER2 amplification and PIK3CA linker domain K111N mutation (FIG. 3B). NOD/SCID mice were implanted subcutaneously with BT474 human tumor cells and were injected subcutaneously with estradiol benzoate twice a week to support tumor growth. When tumors reached a mean size of 286 mm^3, mice were randomized into treatment groups (4 mice per group) and administered one oral dose of vehicle, 30 mg/kg Compound 58, 100 mg/kg Compound 58, 300 mg/kg Compound 58, or 50 mg/kg alpelisib. Alpelisib is a PI3Kα kinase domain inhibitor and was included as a positive control. Whole blood and tumors were collected 4 hours post the dose. Blood was processed to plasma and compound concentrations were determined with LC-MS/MS. Tumors were processed into lysates and pAKT levels were measured using the Meso Scale Diagnostics (MSD) multi-spot pAKT (Ser473)/total AKT assay whole cell lysate kit.

[9] = Oral glucose tolerance test in fasted mice; format: in vivo; details: fasted male C57/BL6J mice, one oral dose 50 mg/kg, 2 g/kg glucose 1 h later, 15-120 minutes
Description: Two in vivo studies were performed to determine whether Compound 58 administration induces hyperglycemia and hyperinsulinemia in mice like the PI3Kα kinase domain inhibitor alpelisib (FIGS. 3C and 3D). In the first study, an oral glucose tolerance test was performed in fasted mice following the administration of compounds to determine if Compound 58 induces hyperglycemia (FIG. 3C). Male C57/BL6J mice were fasted overnight for 16 hours and approximately 5 μL of whole blood was collected via tail snip to measure fasted blood glucose levels using a glucometer. Mice were randomized into three groups (8 mice per group) based on blood glucose levels and then administered one oral dose of vehicle, 50 mg/kg alpelisib, or 300 mg/kg Compound 58. One hour later, blood was collected for a glucose measurement and then a single oral dose of a 2 g/kg glucose solution was administered. Blood glucose measurements were performed at 15, 30, 60, 90, and 120 minutes after the administration of the glucose solution.

[10] = Serum insulin levels in fed mice; format: in vivo; details: fed male C57/BL6J mice, 240 minutes after one oral dose 50 mg/kg
Description: In the second study, serum insulin levels were measured in fed mice following administration of compounds to determine if Compound 58 induces hyperinsulinemia like the PI3Kα kinase domain inhibitor alpelisib (FIG. 3D). Approximately 5 μL of whole blood was collected via tail snip from male C57/BL6J mice and used to measure fed blood glucose levels using a glucometer. Mice were randomized into three groups (8 mice per group) based on blood glucose levels and then administered one oral dose of vehicle, 50 mg/kg alpelisib, or 300 mg/kg Compound 58. 240 minutes later, whole blood was collected and processed to serum and insulin levels were measured using an ELISA.

[11] = Phase III clinical trial; cited from earlier work

KRAS-PI3Kα interaction (KRAS-Q25A binding to avi-tagged full length PI3Kα), sequence (P42336 whole entry, looked up, stated change not applied): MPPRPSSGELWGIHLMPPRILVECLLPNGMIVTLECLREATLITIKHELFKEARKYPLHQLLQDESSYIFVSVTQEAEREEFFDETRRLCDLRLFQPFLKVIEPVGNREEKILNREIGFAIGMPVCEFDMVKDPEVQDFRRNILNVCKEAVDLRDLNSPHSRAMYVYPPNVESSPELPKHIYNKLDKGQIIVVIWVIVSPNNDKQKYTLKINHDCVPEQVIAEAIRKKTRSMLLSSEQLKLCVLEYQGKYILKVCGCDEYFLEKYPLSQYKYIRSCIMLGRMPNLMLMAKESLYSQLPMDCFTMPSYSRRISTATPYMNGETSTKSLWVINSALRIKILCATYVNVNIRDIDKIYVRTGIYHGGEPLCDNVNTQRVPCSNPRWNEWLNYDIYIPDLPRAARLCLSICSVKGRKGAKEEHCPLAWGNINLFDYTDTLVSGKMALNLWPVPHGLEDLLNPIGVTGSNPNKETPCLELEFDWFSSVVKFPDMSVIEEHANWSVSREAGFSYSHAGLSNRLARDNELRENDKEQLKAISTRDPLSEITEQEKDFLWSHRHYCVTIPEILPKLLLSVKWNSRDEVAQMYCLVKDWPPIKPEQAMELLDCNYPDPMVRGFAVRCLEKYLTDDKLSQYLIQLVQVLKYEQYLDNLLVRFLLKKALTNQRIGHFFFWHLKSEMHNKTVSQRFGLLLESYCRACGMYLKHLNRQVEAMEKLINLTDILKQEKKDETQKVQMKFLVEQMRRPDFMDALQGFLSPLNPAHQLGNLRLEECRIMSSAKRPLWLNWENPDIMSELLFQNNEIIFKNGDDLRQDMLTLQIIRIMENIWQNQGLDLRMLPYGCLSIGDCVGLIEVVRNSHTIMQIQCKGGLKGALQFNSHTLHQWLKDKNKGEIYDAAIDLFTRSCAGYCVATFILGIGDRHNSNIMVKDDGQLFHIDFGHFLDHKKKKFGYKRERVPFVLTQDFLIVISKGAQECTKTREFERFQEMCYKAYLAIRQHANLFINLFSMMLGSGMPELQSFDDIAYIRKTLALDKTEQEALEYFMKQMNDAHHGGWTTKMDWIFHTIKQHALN
KRAS-PI3Kα interaction (KRAS-Q25A binding to avi-tagged full length PI3Kα), sequence (P27986 whole entry partner, looked up): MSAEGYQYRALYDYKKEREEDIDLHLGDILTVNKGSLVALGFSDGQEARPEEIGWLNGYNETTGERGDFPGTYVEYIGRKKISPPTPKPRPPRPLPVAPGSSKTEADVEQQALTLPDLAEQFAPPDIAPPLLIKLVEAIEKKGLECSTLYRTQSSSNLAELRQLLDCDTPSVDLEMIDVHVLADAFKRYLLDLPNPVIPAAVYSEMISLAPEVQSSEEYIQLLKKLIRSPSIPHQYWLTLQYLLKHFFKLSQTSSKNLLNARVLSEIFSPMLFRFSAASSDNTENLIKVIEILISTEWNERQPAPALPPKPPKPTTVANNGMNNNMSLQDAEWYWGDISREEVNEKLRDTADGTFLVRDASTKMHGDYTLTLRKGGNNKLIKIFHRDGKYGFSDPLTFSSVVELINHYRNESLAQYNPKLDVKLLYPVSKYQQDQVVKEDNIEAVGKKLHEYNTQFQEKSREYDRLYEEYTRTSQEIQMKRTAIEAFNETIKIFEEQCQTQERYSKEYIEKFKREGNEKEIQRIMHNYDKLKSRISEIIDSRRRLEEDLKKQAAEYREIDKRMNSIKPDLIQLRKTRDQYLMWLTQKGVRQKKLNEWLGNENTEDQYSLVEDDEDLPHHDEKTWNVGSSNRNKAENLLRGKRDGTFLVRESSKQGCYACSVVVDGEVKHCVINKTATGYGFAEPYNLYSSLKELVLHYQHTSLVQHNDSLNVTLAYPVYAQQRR
Cys242 in human PIK3CA (157-299), sequence (P42336 157-299): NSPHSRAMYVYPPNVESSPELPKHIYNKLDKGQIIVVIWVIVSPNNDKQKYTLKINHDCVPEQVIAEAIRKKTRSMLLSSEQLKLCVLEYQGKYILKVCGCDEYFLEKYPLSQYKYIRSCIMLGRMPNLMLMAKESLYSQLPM

IC50 [1] [µM]	IC50 ([3]; Tet-on KRAS G12D HeLa cells) [µM]	Compound	% of modification [2]	further results
< 5		C=CC(=O)NCc1cccc(-c2nc(-c3ccc4c(c3)CCNC4)c3ccsc3c2-c2ccc(F)cc2OCCOC)c1 [Compound 11, N-[[3-[7-[4-fluoro-2-(2-methoxyethoxy)phenyl]-4-(1,2,3,4-tetrahydroisoquinolin-6-yl)thieno[3,2-c]pyridin-6-yl]phenyl]methyl]prop-2-enamide]	C (25%≤percent of modification <50%)	IC50 ([3]; Homo sapiens, HeLa): 1 to 10 µM
		Cc1nc(NC(=O)N2CCC[C@H]2C(N)=O)sc1-c1ccnc(C(C)(C)C(F)(F)F)c1 [alpelisib, reference compound]		blood glucose levels (hyperglycemia) [4]: Hyperglycemia is observed; insulin levels (hyperinsulinemia) [5]: Hyperinsulinemia is observed; IC50 ([6]; Homo sapiens, BT-474, BT474 cell line, read-out: pAKT (IC50)): 0.169 µM; IC50 [7]: 0.744 µM; pAKT inhibited [8]: 97%; Blood glucose levels after glucose dose (oral glucose tolerance test) [9]: significantly elevated; Serum insulin levels [10]: significantly elevated; patients in whom hyperglycemia was observed [11]: 65%
< 5	1 to 10	COCCOc1cc(F)ccc1-c1c(-c2cccc(CNC(=O)C(C)C)c2)nc(-c2ccc3c(c2)CCNC3)c2ccsc12 [compound 10]		IC50 ([6]; BT474 cells, 4 hr incubation, Compounds 10-999, read-out: pAKT inhibition IC50 in BT474 cells): 1 to 3 µM
5 to 25	< 1	C=CC(=O)N1CCC(n2cc(-c3nc(-c4ccc5c(c4)CCNC5)c4ccsc4c3-c3ccc(F)cc3OCCOC)cn2)CC1 [compound 30]	A (percent of modification of PIK3CA protein ≥75%)	
5 to 25	< 1	C=CC(=O)Nc1cccc(-c2nc(-c3ccc4c(c3)CCN(C)C4)c3ccsc3c2-c2ccc(F)cc2OCCOC)c1 [compound 32]	A (percent of modification of PIK3CA protein ≥75%)	
< 5	1 to 10	C=CC(=O)Nc1cccc(-c2nc(-c3ccc4c(c3)CCC(N(C)C)C4)c3ccsc3c2-c2ccc(F)cc2OCCOC)c1 (centres unmarked) [compound 36]	A (percent of modification of PIK3CA protein ≥75%)	
< 5	1 to 10	C=CC(=O)NCCc1cccc(-c2nc(-c3ccc4c(c3)CCNC4)c3ccsc3c2-c2ccc(F)cc2OCCOC)c1 [compound 40]	A (percent of modification of PIK3CA protein ≥75%)	
5 to 25	< 1	C=CC(=O)N1CCC(n2cc(-c3nc(-c4ccc5c(c4)CCN(C)C5)c4ccsc4c3-c3ccc(F)cc3OCCOC)cn2)C1 (centres unmarked) [compound 43]	A (percent of modification of PIK3CA protein ≥75%)	
5 to 25	< 1	C=CC(=O)N1CC[C@@H](n2cc(-c3nc(-c4ccc5c(c4)CCNC5)c4ccsc4c3-c3ccc(F)cc3OCCOC)cn2)C1 [compound 46]	A (percent of modification of PIK3CA protein ≥75%)	

Compound	IC50 [1] [µM]	IC50 ([3]; Tet-on KRAS G12D HeLa cells) [µM]	% of modification [2]	further results
C=CC(=O)NCc1cccc(-c2nc(-c3ccc4c(c3)CCNC4)c3c(c2-c2ccccc2OCCOC)CCC3)c1 [Compound 1, N-(3-(4-(2-(2-methoxvethoxy)phenyl)-1-(1,2,3,4-tetrahydroisoquinolin-6-yl)-6,7-dihydro-5H-cyclopenta[c]pyridin-3-yl)benzyl)acrylamide]	5 to 25	1 to 10	D (percent of modification <25%)	
